Assay results as given in ChEMBL document CHEMBL5678812, “Inhibitors of p21-activated kinases (PAKs)” (J Med Chem, 2015).

Columns and labels:
[1] = target: Mitogen-activated protein kinase kinase kinase kinase 2 (Homo sapiens) (UniProt Q12851); test: Inhibition of GCK (unknown origin) at 0.1 uM relative to control
[2] = target: Serine/threonine-protein kinase PLK3 (Homo sapiens) (UniProt Q9H4B4); test: Inhibition of PLK3 (unknown origin) at 0.1 uM relative to control
[3] = target: Receptor-type tyrosine-protein kinase FLT3 (Homo sapiens) (UniProt P36888); test: Inhibition of Flt3 (unknown origin) at 0.1 uM relative to control
Chain of Receptor-type tyrosine-protein kinase FLT3 (Homo sapiens) (P36888 whole entry): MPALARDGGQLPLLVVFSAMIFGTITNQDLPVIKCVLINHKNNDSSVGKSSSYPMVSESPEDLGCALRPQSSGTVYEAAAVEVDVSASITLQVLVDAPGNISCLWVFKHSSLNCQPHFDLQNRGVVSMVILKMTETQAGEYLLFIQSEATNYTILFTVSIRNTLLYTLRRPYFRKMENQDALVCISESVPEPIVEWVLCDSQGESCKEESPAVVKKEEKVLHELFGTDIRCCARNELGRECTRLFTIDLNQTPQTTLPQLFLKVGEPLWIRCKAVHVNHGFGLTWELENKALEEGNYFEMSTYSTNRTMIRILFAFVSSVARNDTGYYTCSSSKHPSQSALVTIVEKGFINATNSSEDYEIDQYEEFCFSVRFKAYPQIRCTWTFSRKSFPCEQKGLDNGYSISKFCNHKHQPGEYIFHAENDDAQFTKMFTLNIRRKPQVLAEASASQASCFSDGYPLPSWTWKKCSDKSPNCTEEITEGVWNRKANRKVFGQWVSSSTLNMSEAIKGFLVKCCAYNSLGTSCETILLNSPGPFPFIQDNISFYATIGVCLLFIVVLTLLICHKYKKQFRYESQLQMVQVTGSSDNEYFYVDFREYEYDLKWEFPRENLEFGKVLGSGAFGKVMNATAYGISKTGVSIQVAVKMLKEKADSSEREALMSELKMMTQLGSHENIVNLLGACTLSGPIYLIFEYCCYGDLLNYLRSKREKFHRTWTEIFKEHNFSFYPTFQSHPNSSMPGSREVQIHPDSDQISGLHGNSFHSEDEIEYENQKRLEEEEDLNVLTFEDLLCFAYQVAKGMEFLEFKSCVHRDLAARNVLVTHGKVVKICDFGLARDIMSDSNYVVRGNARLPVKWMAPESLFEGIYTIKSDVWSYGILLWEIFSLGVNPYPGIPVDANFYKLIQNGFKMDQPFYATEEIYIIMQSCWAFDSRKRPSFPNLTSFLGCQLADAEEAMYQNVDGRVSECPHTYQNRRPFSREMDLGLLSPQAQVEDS

[4] = target: Ephrin type-A receptor 1 (Homo sapiens) (UniProt P21709); test: Inhibition of EphA1 (unknown origin) at 0.1 uM relative to control
[5] = target: Mitogen-activated protein kinase kinase kinase 9 (Homo sapiens) (UniProt P80192); test: Inhibition of MLK1 (unknown origin) at 0.1 uM relative to control
Chain of Mitogen-activated protein kinase kinase kinase 9 (Homo sapiens) (P80192 whole entry, looked up): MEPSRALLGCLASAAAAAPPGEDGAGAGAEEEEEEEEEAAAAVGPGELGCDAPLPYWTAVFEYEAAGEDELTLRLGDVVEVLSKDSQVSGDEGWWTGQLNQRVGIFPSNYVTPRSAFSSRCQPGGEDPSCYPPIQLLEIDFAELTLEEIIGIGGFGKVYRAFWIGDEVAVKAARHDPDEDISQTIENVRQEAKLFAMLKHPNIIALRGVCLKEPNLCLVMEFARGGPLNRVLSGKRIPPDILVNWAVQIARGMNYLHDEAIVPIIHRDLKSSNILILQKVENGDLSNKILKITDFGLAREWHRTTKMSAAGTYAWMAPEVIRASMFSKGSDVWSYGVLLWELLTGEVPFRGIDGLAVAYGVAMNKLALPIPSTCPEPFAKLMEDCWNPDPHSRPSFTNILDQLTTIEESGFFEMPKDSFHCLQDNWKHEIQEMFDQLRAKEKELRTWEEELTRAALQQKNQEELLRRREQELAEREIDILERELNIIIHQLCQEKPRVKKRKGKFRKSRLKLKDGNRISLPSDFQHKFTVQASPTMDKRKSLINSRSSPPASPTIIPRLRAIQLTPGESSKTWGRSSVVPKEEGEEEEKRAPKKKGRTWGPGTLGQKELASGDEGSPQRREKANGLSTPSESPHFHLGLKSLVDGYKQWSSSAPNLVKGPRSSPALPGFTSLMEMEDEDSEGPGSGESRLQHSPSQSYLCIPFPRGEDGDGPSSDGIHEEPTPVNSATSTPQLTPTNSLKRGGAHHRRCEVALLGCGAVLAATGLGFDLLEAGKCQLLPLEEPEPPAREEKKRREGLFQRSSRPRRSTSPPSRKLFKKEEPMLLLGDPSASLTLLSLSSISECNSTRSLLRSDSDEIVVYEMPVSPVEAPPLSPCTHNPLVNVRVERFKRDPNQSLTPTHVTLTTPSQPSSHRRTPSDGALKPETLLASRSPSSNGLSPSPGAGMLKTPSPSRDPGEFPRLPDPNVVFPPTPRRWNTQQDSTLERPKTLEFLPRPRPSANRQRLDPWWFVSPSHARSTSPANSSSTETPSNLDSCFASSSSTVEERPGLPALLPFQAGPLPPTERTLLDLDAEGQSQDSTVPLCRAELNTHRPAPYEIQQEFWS

[6] = target: Serine/threonine-protein kinase N1 (Homo sapiens) (UniProt Q16512); test: Inhibition of PRK1 (unknown origin) at 0.1 uM relative to control
[7] = target: Ribosomal protein S6 kinase alpha-2 (Homo sapiens) (UniProt Q15349); test: Inhibition of Rsk3 (unknown origin) at 0.1 uM relative to control
[8] = target: Serine/threonine-protein kinase PAK 5 (Homo sapiens, UniProt Q9P286); test: Inhibition of PAK5 (unknown origin) at 0.1 uM relative to control
Homo sapiens [9] = species: Homo sapiens; test: Inhibition of PDGFRalpha V560D mutant (unknown origin) at 0.1 uM relative to control
[10] = target: Serine/threonine-protein kinase PAK 4 (Homo sapiens, UniProt O96013); test: Inhibition of PAK4 (unknown origin) at 0.1 uM relative to control
[11] = target: Tyrosine-protein kinase Blk (Homo sapiens) (UniProt P51451); test: Inhibition of Blk (unknown origin) at 0.1 uM relative to control
Chain of Tyrosine-protein kinase Blk (Homo sapiens) (P51451 2-505 limits assumed): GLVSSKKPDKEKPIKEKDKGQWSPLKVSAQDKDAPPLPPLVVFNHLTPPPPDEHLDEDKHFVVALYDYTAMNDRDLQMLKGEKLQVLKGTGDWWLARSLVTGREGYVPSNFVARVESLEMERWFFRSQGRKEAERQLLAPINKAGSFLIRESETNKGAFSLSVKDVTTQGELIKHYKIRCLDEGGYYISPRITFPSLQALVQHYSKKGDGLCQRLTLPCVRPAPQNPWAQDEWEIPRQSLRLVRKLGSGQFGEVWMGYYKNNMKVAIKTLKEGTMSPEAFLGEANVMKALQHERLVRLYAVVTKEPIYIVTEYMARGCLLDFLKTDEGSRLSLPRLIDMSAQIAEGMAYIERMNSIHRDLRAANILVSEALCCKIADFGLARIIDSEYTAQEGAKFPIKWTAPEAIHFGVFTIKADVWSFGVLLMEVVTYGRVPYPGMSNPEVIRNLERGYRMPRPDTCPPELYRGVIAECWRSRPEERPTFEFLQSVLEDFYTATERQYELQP

[12] = target: Receptor tyrosine-protein kinase erbB-4 (Homo sapiens) (UniProt Q15303); test: Inhibition of ErbB4 (unknown origin) at 0.1 uM relative to control
Homo sapiens [13] = species: Homo sapiens; test: Inhibition of p70S6K (unknown origin) at 0.1 uM relative to control
[14] = target: Tyrosine-protein kinase JAK3 (Homo sapiens) (UniProt P52333); test: Inhibition of JAK3 (unknown origin) at 0.1 uM relative to control
[15] = target: Cytoplasmic tyrosine-protein kinase BMX (Homo sapiens) (UniProt P51813); test: Inhibition of Bmx (unknown origin) at 0.1 uM relative to control
[16] = target: Ribosomal protein S6 kinase alpha-6 (Homo sapiens) (UniProt Q9UK32); test: Inhibition of Rsk4 (unknown origin) at 0.1 uM relative to control
[17] = target: Platelet-derived growth factor receptor beta (Homo sapiens) (UniProt P09619); test: Inhibition of PDGFRbeta (unknown origin) at 0.1 uM relative to control
[18] = target: 5'-AMP-activated protein kinase catalytic subunit alpha-1 (Homo sapiens) (UniProt Q13131); test: Inhibition of PRKAA1 (unknown origin) at 0.1 uM relative to control
[19] = target: Serine/threonine-protein kinase Chk1 (Homo sapiens) (UniProt O14757); test: Inhibition of CHK1 (unknown origin) at 0.1 uM relative to control
[20] = target: Mast/stem cell growth factor receptor Kit (Homo sapiens) (UniProt P10721); test: Inhibition of Kit (unknown origin) at 0.1 uM relative to control
Chain of Mast/stem cell growth factor receptor Kit (Homo sapiens) (P10721 whole entry): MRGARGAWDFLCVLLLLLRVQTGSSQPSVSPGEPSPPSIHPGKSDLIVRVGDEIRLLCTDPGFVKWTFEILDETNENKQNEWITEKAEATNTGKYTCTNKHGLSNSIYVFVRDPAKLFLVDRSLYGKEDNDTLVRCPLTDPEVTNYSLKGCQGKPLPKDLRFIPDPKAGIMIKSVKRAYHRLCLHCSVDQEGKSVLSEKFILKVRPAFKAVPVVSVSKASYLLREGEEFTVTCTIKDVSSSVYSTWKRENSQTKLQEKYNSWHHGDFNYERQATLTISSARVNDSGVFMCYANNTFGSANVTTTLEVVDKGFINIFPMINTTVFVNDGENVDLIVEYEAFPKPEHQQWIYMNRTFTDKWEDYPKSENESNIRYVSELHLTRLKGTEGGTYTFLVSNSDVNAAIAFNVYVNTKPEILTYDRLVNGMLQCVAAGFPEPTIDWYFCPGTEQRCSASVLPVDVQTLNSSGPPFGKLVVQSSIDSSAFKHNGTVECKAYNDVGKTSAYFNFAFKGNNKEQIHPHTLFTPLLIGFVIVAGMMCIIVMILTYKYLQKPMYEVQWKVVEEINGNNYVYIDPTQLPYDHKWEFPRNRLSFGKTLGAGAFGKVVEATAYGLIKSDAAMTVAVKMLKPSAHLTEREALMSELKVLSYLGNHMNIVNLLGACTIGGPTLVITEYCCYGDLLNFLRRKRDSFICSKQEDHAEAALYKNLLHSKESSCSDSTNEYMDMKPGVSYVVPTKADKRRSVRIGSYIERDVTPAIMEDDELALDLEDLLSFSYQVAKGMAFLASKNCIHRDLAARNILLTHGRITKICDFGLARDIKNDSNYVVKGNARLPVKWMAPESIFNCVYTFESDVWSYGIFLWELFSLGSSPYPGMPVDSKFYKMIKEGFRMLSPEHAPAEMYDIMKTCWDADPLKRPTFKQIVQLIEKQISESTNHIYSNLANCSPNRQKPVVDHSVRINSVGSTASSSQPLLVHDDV

[21] = target: Fibroblast growth factor receptor 2 (Homo sapiens) (UniProt P21802); test: Inhibition of FGFR2 (unknown origin) at 0.1 uM relative to control
[22] = target: Misshapen-like kinase 1 (Homo sapiens) (UniProt Q8N4C8); test: Inhibition of Mink1 (unknown origin) at 0.1 uM relative to control
[23] = target: Casein kinase I isoform gamma-2 (Homo sapiens) (UniProt P78368); test: Inhibition of CK1gamma2 (unknown origin) at 0.1 uM relative to control
[24] = target: Mitogen-activated protein kinase 14 (Homo sapiens) (UniProt Q16539); test: Inhibition of p38alpha (unknown origin) at 0.1 uM relative to control
Chain of Mitogen-activated protein kinase 14 (Homo sapiens) (Q16539 whole entry): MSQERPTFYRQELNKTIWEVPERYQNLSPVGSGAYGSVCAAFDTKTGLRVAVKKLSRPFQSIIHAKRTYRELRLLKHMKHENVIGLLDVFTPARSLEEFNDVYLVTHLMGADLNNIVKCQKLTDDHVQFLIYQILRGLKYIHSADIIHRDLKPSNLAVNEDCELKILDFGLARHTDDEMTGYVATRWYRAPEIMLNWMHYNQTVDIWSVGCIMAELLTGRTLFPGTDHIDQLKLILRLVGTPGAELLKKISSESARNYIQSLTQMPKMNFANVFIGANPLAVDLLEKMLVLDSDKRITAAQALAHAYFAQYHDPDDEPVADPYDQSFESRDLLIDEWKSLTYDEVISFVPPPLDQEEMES

[25] = target: Serine/threonine-protein kinase D1 (Homo sapiens) (UniProt Q15139); test: Inhibition of PKD1 (unknown origin) at 0.1 uM relative to control
[26] = target: Dual specificity tyrosine-phosphorylation-regulated kinase 3 (Homo sapiens) (UniProt O43781); test: Inhibition of DYRK3 (unknown origin) at 0.1 uM relative to control
[27] = target: Proto-oncogene tyrosine-protein kinase Src (Homo sapiens) (UniProt P12931); test: Inhibition of Src (unknown origin) at 0.1 uM relative to control
[28] = target: Tyrosine-protein kinase ZAP-70 (Homo sapiens) (UniProt P43403); test: Inhibition of ZAP-70 (unknown origin) at 0.1 uM relative to control
[29] = target: Cyclin-dependent kinase 1/cyclin B1 (Homo sapiens) (UniProt P06493+P14635); test: Inhibition of CDK1/cyclinB (unknown origin) at 0.1 uM relative to control; type: protein-complex assay
[30] = test system: RAF proto-oncogene serine/threonine-protein kinase (Homo sapiens), P04049 [Y340D,Y341D]; test: Inhibition of RAF1 Y340D/Y341D double mutant (unknown origin) at 0.1 uM relative to control
Chain of RAF proto-oncogene serine/threonine-protein kinase (Homo sapiens), P04049 [Y340D,Y341D] (P04049 whole entry Y340D/Y341D): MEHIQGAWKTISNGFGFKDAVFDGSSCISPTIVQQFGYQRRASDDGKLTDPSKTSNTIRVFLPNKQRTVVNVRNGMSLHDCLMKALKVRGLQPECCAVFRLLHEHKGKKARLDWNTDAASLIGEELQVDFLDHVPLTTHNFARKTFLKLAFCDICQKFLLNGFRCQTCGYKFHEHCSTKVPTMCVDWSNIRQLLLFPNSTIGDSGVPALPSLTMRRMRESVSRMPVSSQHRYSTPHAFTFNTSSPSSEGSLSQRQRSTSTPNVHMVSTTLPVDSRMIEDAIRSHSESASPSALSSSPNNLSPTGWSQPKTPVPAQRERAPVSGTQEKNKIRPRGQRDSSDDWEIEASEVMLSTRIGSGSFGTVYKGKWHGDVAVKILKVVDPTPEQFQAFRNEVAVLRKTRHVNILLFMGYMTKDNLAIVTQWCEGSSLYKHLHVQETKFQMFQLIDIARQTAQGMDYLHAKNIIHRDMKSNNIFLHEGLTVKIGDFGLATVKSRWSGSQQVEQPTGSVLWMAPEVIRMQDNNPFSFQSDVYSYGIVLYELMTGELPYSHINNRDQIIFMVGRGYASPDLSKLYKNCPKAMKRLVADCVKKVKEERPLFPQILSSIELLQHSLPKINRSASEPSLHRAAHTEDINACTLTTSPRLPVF

[31] = target: Serine/threonine-protein kinase TBK1 (Homo sapiens) (UniProt Q9UHD2); test: Inhibition of TBK1 (unknown origin) at 0.1 uM relative to control
[32] = target: Serine/threonine-protein kinase pim-1 (Homo sapiens) (UniProt P11309); test: Inhibition of PIM1 (unknown origin) at 0.1 uM relative to control
[33] = target: Mitogen-activated protein kinase kinase kinase kinase 4 (Homo sapiens) (UniProt O95819); test: Inhibition of MAP4K4 (unknown origin) at 0.1 uM relative to control
[34] = target: Ephrin type-A receptor 2 (Homo sapiens) (UniProt P29317); test: Inhibition of EphA2 (unknown origin) at 0.1 uM relative to control
[35] = target: Tyrosine-protein kinase ABL2 (Homo sapiens) (UniProt P42684); test: Inhibition of Arg (unknown origin) at 0.1 uM relative to control
[36] = target: Aurora kinase A (Homo sapiens) (UniProt O14965); test: Inhibition of Aurora A (unknown origin) at 0.1 uM relative to control
[37] = target: Testis-specific serine/threonine-protein kinase 1 (Homo sapiens) (UniProt Q9BXA7); test: Inhibition of TSSK1 (unknown origin) at 0.1 uM relative to control
[38] = target: MAP/microtubule affinity-regulating kinase 3 (Homo sapiens) (UniProt P27448); test: Inhibition of MARK3 (unknown origin) at 0.1 uM relative to control
[39] = target: Mitogen-activated protein kinase 13 (Homo sapiens) (UniProt O15264); test: Inhibition of p38delta (unknown origin) at 0.1 uM relative to control
Chain of Mitogen-activated protein kinase 13 (Homo sapiens) (O15264 whole entry): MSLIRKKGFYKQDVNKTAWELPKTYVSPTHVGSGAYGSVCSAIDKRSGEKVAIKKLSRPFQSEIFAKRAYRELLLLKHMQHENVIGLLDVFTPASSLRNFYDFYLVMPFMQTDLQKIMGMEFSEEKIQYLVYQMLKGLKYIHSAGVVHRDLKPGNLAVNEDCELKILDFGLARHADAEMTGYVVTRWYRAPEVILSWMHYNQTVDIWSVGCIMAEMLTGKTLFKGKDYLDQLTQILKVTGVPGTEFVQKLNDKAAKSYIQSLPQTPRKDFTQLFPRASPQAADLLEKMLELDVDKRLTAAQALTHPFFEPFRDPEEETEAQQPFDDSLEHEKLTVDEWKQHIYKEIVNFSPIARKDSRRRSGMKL

Compound | inhibition [1] [%] | inhibition [2] [%] | inhibition [3] [%] | inhibition [4] [%] | inhibition [5] [%] | inhibition [6] [%] | inhibition [7] [%] | inhibition [8] [%] | inhibition (Homo sapiens [9]) [%] | inhibition [10] [%] | inhibition [11] [%] | inhibition [12] [%] | inhibition (Homo sapiens [13]) [%] | inhibition [14] [%] | inhibition [15] [%] | inhibition [16] [%] | inhibition [17] [%] | inhibition [18] [%] | inhibition [19] [%] | inhibition [20] [%] | also measured
COCCNc1nc2ccc(C#CC3(O)CCCCC3)cc2n1-c1ccnc(N)n1 | 1 | 9.2 | 8.7 | 5 | 15.4 | -2.3 | 14.9 | 75.1 | -3.5 | 89.5 | 7.2 | -1 | 7.2 | -1.3 | 11.6 | 2.4 | 0.7 | 10.6 | -3.5 | -5.5 | inhibition [21]: 6.8%; inhibition [22]: 4.4%; inhibition [23]: 18.3%; inhibition [24]: 4.4%; inhibition [25]: 16.4%; inhibition [26]: 0.9%; inhibition [27]: 1.9%; inhibition [28]: 2.4%; inhibition [29]: 8.1%; inhibition [30]: 7.6%; inhibition [31]: 11.6%; inhibition [32]: 3.8%; inhibition [33]: 14.6%; inhibition [34]: 15%; inhibition [35]: 10.2%; inhibition [36]: 10.3%; inhibition [37]: 6.2%; inhibition [38]: 5.5%; inhibition [39]: 8.4%
CN1CCc2cc(-c3cnc4[nH]cc(C(=O)c5ccccc5Cl)c4c3)ccc2C1 | 69.8 | -5.8 | 83.4 | 90.7 | 11.4 | -1.6 | -6 | 28.5 | 66.9 | 29.2 | 86 | 78.9 | 15.3 | 45.4 | 91.5 | 11.9 | 96 | 16 | 19.1 | 37 | inhibition [21]: 55.6%; inhibition [22]: 97%; inhibition [23]: -1.5%; inhibition [24]: 34.8%; inhibition [25]: 49.5%; inhibition [26]: 3.8%; inhibition [27]: 92.9%; inhibition [28]: 4.5%; inhibition [29]: 16.5%; inhibition [30]: -4.8%; inhibition [31]: 4.3%; inhibition [32]: -2%; inhibition [33]: 104%; inhibition [34]: 43.5%; inhibition [35]: 95.3%; inhibition [36]: 25.9%; inhibition [37]: 28%; inhibition [38]: 37%; inhibition [39]: 5.1%
